Results: US8691865B2 (AbbVie Inc., priority 2008, dated 2014)

Biological target: human Cav2.2 (Homo sapiens, UniProt Q00975)
Assay: Assessment of calcium channel activity using FLIPR (Ca2+ influx in IMR32 cells)
Format: cell-based
Settings: not given
In short: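 Human neuroblastoma IMR32 cells were seeded at 1−1.2×10^5 cells/well and cultured 48 h at 37 °C before FLIPR calcium influx measurement. Percent inhibition at each concentration was calculated against the no-inhibitor signal, and IC50 came from sigmoidal dose-response fits.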

human Cav2.2, sequence (Q00975 whole entry): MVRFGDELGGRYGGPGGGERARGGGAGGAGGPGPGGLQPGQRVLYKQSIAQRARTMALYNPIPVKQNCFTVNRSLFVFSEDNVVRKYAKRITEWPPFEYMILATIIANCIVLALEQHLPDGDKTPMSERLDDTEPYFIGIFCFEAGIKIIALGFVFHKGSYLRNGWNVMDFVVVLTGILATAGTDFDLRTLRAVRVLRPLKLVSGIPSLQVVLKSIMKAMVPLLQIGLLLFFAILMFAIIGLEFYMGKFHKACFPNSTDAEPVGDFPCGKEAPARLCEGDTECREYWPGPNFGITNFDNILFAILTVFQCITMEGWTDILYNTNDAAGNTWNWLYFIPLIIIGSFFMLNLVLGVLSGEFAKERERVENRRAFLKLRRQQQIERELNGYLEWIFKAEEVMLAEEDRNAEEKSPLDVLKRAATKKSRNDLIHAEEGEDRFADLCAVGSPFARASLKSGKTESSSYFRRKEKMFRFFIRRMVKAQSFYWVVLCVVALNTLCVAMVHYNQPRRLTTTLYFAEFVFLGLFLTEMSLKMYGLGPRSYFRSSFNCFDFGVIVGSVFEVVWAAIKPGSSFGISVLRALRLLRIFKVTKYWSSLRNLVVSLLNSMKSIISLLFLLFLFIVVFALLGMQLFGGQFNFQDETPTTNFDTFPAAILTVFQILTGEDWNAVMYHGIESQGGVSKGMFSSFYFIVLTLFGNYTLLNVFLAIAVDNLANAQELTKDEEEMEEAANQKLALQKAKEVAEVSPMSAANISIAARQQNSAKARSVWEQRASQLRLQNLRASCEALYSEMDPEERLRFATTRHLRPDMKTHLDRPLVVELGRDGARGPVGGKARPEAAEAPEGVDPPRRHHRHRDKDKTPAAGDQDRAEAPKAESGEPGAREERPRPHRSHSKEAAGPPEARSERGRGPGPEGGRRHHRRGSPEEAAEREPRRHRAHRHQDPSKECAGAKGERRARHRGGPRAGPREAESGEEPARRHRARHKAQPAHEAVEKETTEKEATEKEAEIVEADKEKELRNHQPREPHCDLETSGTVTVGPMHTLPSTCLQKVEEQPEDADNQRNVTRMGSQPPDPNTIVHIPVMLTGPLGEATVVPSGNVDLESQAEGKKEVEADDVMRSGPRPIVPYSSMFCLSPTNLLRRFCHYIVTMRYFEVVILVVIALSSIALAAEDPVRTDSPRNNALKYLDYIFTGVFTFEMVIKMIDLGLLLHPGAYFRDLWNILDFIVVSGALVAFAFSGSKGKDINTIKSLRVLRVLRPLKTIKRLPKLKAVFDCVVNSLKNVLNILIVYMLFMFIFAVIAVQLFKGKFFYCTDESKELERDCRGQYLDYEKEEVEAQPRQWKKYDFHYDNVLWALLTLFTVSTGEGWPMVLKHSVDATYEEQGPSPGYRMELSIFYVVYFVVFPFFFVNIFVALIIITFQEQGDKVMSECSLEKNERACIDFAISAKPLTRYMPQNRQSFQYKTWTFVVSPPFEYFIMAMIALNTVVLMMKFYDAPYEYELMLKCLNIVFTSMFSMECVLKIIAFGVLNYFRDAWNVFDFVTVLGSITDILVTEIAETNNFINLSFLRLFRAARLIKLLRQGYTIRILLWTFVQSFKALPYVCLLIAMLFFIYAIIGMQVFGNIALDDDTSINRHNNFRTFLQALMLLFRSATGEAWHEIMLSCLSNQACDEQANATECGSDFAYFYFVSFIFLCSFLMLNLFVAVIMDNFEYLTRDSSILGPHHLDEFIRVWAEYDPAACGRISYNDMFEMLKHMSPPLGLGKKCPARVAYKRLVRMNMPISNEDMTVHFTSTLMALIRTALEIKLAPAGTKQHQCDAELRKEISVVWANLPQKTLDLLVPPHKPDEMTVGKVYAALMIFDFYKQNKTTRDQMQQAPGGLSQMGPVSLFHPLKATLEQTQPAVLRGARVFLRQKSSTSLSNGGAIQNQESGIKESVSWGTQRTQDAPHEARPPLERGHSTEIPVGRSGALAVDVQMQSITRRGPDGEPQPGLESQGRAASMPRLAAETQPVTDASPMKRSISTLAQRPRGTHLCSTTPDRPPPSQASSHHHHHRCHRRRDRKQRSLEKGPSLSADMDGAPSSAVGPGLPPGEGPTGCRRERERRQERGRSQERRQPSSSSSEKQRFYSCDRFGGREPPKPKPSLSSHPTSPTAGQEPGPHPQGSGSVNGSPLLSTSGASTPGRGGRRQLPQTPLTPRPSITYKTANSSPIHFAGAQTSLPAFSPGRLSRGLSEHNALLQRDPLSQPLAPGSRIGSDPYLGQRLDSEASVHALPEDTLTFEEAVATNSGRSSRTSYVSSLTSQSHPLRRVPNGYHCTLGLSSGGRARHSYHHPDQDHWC
human Cav2.2, sequence (P54289 25-956 partner limits assumed): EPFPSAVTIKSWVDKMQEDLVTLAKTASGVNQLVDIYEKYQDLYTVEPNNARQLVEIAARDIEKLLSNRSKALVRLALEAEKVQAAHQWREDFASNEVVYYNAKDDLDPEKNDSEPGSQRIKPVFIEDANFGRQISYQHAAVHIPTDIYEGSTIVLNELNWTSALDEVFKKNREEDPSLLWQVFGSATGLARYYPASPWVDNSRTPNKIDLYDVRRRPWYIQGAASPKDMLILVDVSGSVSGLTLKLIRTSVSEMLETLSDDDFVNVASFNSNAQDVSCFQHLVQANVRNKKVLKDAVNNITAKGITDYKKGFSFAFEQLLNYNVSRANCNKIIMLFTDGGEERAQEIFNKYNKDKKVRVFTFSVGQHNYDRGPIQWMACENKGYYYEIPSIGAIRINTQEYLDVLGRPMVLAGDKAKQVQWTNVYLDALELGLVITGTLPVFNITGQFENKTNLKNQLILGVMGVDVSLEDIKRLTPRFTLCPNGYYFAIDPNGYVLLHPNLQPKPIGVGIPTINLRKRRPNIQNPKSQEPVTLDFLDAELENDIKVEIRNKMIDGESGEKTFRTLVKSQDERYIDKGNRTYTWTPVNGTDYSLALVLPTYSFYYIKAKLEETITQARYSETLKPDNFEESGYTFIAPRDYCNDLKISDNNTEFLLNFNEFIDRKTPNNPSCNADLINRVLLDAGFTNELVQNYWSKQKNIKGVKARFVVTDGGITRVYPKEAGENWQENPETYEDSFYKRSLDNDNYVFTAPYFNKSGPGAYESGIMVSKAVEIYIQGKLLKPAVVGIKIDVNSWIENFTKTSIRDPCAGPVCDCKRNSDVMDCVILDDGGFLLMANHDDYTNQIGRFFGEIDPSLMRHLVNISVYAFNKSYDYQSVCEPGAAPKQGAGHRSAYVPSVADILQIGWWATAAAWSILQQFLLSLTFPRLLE
human Cav2.2, sequence (P54289 957-1103 partner limits assumed): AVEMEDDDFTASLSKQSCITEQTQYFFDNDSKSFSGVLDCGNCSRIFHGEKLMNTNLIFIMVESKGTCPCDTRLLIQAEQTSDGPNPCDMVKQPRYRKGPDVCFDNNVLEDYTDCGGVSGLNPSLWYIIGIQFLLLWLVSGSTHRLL
human Cav2.2, sequence (P54284 whole entry partner): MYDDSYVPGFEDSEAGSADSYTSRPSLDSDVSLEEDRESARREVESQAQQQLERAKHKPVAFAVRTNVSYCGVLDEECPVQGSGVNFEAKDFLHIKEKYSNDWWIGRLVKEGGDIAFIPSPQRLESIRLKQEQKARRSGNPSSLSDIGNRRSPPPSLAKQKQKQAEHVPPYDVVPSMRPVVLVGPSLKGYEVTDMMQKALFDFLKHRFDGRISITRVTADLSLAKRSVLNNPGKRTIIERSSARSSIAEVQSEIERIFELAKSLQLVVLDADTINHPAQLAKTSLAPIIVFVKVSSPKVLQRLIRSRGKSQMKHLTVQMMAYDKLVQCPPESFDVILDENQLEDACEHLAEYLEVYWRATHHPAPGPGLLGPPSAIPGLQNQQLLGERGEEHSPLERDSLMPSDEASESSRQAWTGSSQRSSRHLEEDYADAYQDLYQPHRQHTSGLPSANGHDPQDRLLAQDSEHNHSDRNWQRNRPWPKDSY

**Q.** For O=C(N[C@H]1CC[C@@H]2CN(c3ccc(C(F)(F)F)cn3)C[C@@H]21)c1cc2ccccc2[nH]1 [Example 568, N-{(3aR,4S,6aS)-2-[5-(trifluoromethyl)pyridin-2-yl]octahydrocyclopenta[c]pyrrol-4-yl}-1H-indole-2-carboxamide], which IC50 is on record?
**A.** 2.1 µM

**Q.** How did the IC50 turn out when O=C(N[C@H]1CC[C@@H]2CN(c3ccc(OC(F)(F)F)cc3)C[C@@H]21)[C@@H]1C[C@@H](F)CN1 [Example 631, (4R)-4-fluoro-N-{(3aR,4S,6aS)-2-[4-(trifluoromethoxy)phenyl]octahydrocyclopenta[c]pyrrol-4-yl}-L-prolinamide] was run?
**A.** > 30 µM

**Q.** For CC(C)NCC(=O)N[C@H]1CC[C@@H]2CN(c3ccc(C(F)(F)F)cc3)C[C@@H]21 [Example 761, N^2-isopropyl-N-{(3aR,4S,6aS)-2-[4-(trifluoromethyl)phenyl]octahydrocyclopenta[c]pyrrol-4-yl}glycinamide], which IC50 is on record?
**A.** 3.59 µM

**Q.** With CN[C@@H](CC(C)C)C(=O)N[C@@H]1CC[C@H]2CN(c3ccc(C(F)(F)F)cn3)C[C@H]21 [Example 738, N^2-methyl-N-{(3aS,4R,6aR)-2-[5-(trifluoromethyl)pyridin-2-yl]octahydrocyclopenta[c]pyrrol-4-yl}-L-leucinamide] as the compound, how does the IC50 read?
**A.** 2.98 µM

**Q.** For O=C(N[C@H]1CC[C@@H]2CN(S(=O)(=O)c3cccc(C(F)(F)F)c3)C[C@@H]21)[C@@H]1CCCN1 [Example 387, N-((3aR,4S,6aS)-2-{[3-(trifluoromethyl)phenyl]sulfonyl}octahydrocyclopenta[c]pyrrol-4-yl)-L-prolinamide], which IC50 is on record?
**A.** 5.87 µM

**Q.** How did the IC50 turn out when O=C(N[C@H]1CC[C@@H]2CN(c3cccc(C(F)(F)F)n3)C[C@@H]21)c1ccc(F)c(F)c1 [Example 565, 3,4-difluoro-N-{(3aR,4S,6aS)-2-[6-(trifluoromethyl)pyridin-2-yl]octahydrocyclopenta[c]pyrrol-4-yl}benzamide] was run?
**A.** 0.81 µM

**Q.** Fc1ccc2[nH]cc(CN[C@H]3CC[C@@H]4CN(c5cccc(C(F)(F)F)n5)C[C@@H]43)c2c1 [Example 678, (3aR,4S,6aS)-N-[(5-fluoro-1H-indol-3-yl)methyl]-2-[6-(trifluoromethyl)pyridin-2-yl]octahydrocyclopenta[c]pyrrol-4-amine] was tested. Which IC50 did it give?
**A.** 0.69 µM

**Q.** O=C(N[C@H]1CC[C@@H]2CN(c3cccc(C(F)(F)F)n3)C[C@@H]21)c1ccccc1F [Example 563, 2-fluoro-N-{(3aR,4S,6aS)-2-[6-(trifluoromethyl)pyridin-2-yl]octahydrocyclopenta[c]pyrrol-4-yl}benzamide] was tested. Which IC50 did it give?
**A.** 1.32 µM

**Q.** How did the IC50 turn out when Fc1ccc2[nH]c(CN[C@H]3CC[C@@H]4CN(c5cccc(C(F)(F)F)c5)C[C@@H]43)cc2c1 [Example 616, (3aR,4S,6aS)-N-[(5-fluoro-1H-indol-2-yl)methyl]-2-[3-(trifluoromethyl)phenyl]octahydrocyclopenta[c]pyrrol-4-amine] was run?
**A.** 4.22 µM

**Q.** For N#Cc1ccccc1N1C[C@H]2CC[C@H](NC(=O)[C@@H]3C[C@@H](F)CN3)[C@H]2C1 [Example 651, (4R)-N-[(3aR,4S,6aS)-2-(2-cyanophenyl)octahydrocyclopenta[c]pyrrol-4-yl]-4-fluoro-L-prolinamide], which IC50 is on record?
**A.** 14.9 µM

**Q.** Which IC50 does the source give for O=C(N[C@H]1CC[C@@H]2CN(c3cccc(C(F)(F)F)c3F)C[C@@H]21)[C@@H]1C[C@@H](F)CN1 [Example 623, (4R)-4-fluoro-N-{(3aR,4S,6aS)-2-[2-fluoro-3-(trifluoromethyl)phenyl]octahydrocyclopenta[c]pyrrol-4-yl}-L-prolinamide] here?
**A.** 1.32 µM

**Q.** How did the IC50 turn out when CNC(C)(C)C(=O)N[C@H]1CC[C@@H]2CN(c3ccc(C(F)(F)F)cc3)C[C@@H]21 [Example 754, N^2,2-dimethyl-N-{(3aR,4S,6aS)-2-[4-(trifluoromethyl)phenyl]octahydrocyclopenta[c]pyrrol-4-yl}alaninamide] was run?
**A.** 6.78 µM

**Q.** O=C(N[C@H]1CC[C@@H]2CN(c3cccc(C(F)(F)F)n3)C[C@@H]21)[C@H]1CC[C@@H](O)CC1 [Example 584, cis-4-hydroxy-N-{(3aR,4S,6aS)-2-[6-(trifluoromethyl)pyridin-2-yl]octahydrocyclopenta[c]pyrrol-4-yl}cyclohexanecarboxamide] was tested. Which IC50 did it give?
**A.** 2.06 µM

**Q.** With O=C(N[C@H]1CC[C@@H]2CN(c3cccc(C(F)(F)F)n3)C[C@@H]21)c1ccc(F)c(Cl)c1 [Example 566, 3-chloro-4-fluoro-N-{(3aR,4S,6aS)-2-[6-(trifluoromethyl)pyridin-2-yl]octahydrocyclopenta[c]pyrrol-4-yl}benzamide] as the compound, how does the IC50 read?
**A.** 0.81 µM

**Q.** With O=C(N[C@H]1CC[C@@H]2CN(c3cccc(C(F)(F)F)n3)C[C@@H]21)c1cc2ccccc2[nH]1 [Example 570, N-{(3aR,4S,6aS)-2-[6-(trifluoromethyl)pyridin-2-yl]octahydrocyclopenta[c]pyrrol-4-yl}-1H-indole-2-carboxamide] as the compound, how does the IC50 read?
**A.** 0.61 µM

**Q.** For CC(C)(C)C[C@H](N)C(=O)N[C@H]1CC[C@@H]2CN(C(=O)[C@@H](N)Cc3ccccc3)C[C@@H]21 [Example 465, 4-methyl-N^1-[(3aR,4S,6aS)-2-L-phenylalanyloctahydrocyclopenta[c]pyrrol-4-yl]-L-leucinamide], which IC50 is on record?
**A.** > 30 µM

**Q.** How did the IC50 turn out when CCC[C@H](NCC(C)(C)C)C(=O)N[C@H]1CC[C@@H]2CN(S(=O)(=O)c3ccc(C(F)(F)F)cc3)C[C@@H]21 [Example 257, N^2-neopentyl-N^1-((3aR,4S,6aS)-2-{[4-(trifluoromethyl)phenyl]sulfonyl}octahydrocyclopenta[c]pyrrol-4-yl)-L-norvalinamide] was run?
**A.** 0.7 µM

**Q.** For Cc1c[nH]c(CN[C@H]2CC[C@@H]3CN(c4cccc(C(F)(F)F)n4)C[C@@H]32)n1 [Example 670, (3aR,4S,6aS)-N-[(4-methyl-1H-imidazol-2-yl)methyl]-2-[6-(trifluoromethyl)pyridin-2-yl]octahydrocyclopenta[c]pyrrol-4-amine], which IC50 is on record?
**A.** 1.17 µM

**Q.** Which IC50 does the source give for O=C(N[C@H]1CC[C@@H]2CN(c3cccc(F)c3)C[C@@H]21)[C@@H]1C[C@@H](F)CN1 [Example 640, (4R)-4-fluoro-N-[(3aR,4S,6aS)-2-(3-fluorophenyl)octahydrocyclopenta[c]pyrrol-4-yl]-L-prolinamide] here?
**A.** 14.4 µM

**Q.** How did the IC50 turn out when CC(C)COC(=O)N[C@@H](CC(C)C)C(=O)N[C@@H]1CC[C@H]2CN(Cc3cccc(C(F)(F)F)c3)C[C@H]21 [Example 178, isobutyl (S)-4-methyl-1-oxo-1-((3aS,4R,6aR)-2-(3-(trifluoromethyl)benzyl)octahydrocyclopenta[c]pyrrol-4-ylamino)pentan-2-ylcarbamate] was run?
**A.** 1 µM

**Q.** O=C(N[C@H]1CC[C@@H]2CN(c3ccc(Cl)cc3)C[C@@H]21)[C@@H]1C[C@@H](F)CN1 [Example 644, (4R)-N-[(3aR,4S,6aS)-2-(4-chlorophenyl)octahydrocyclopenta[c]pyrrol-4-yl]-4-fluoro-L-prolinamide] was tested. Which IC50 did it give?
**A.** 8.5 µM

**Q.** How did the IC50 turn out when CN[C@H](C(=O)N[C@@H]1CC[C@H]2CN(Cc3ccc(F)cc3)C[C@H]21)C(C)C [Example 369, N^1-[(3aS,4R,6aR)-2-(4-fluorobenzyl)octahydrocyclopenta[c]pyrrol-4-yl]-N^2-methyl-L-valinamide] was run?
**A.** > 16.4 µM

Same assay, conditions: read-out: IC50 (μM) or percent inhibition (* indicates 3 minute incubation, otherwise 60 minute); IC50; 60 minute pre-incubation with compound; IMR32 cells, 80 mM KCl depolarization

**Q.** CC(C)C[C@H](NS(=O)(=O)C1CC1)C(=O)N[C@H]1CC[C@H]2CN(Cc3cccc(C(F)(F)F)c3)C[C@H]21 [Example 174, N^2-(cyclopropylsulfonyl)-N^1-{(3aS,4S,6aR)-2-[3-(trifluoromethyl)benzyl]octahydrocyclopenta[c]pyrrol-4-yl}-L-leucinamide] was tested. Which IC50 did it give?
**A.** 1.04 µM

**Q.** With O=C(CCCC(c1ccc(F)cc1)c1ccc(F)cc1)N[C@@H]1CC[C@H]2CN(Cc3cccc(C(F)(F)F)c3)C[C@H]21 (relative stereo) [Example 142, 5,5-bis(4-fluorophenyl)-N-{(3aS*,4R*,6aR*)-2-[3-(trifluoromethyl)benzyl]octahydrocyclopenta[c]pyrrol-4-yl}pentanamide] as the compound, how does the IC50 read?
**A.** 0.86 µM

**Q.** CN[C@H](CC(C)C)C(=O)N[C@@H]1CC[C@H]2CN(Cc3cccc(C(F)(F)F)c3)C[C@H]21 (relative stereo) [Example 163, N^2-methyl-N^1-{(3aS*,4R*,6aR*)-2-[3-(trifluoromethyl)benzyl]octahydrocyclopenta[c]pyrrol-4-yl}-D-leucinamide] was tested. Which IC50 did it give?
**A.** 4.59 µM

**Q.** Which IC50 does the source give for CC[C@H](C(=O)N[C@@H]1CC[C@H]2CN(Cc3ccccc3)C[C@H]21)c1ccccc1 [Example 16, (2S)-N-[(3aS,4R,6aR)-2-benzyloctahydrocyclopenta[c]pyrrol-4-yl]-2-phenylbutanamide] here?
**A.** 9.75 µM

**Q.** With O=C(N[C@H]1CC[C@H]2CN(Cc3ccc(C(F)(F)F)c(F)c3)C[C@H]21)C(C1CCCCC1)C1CCCCC1 [Example 58, 2,2-dicyclohexyl-N-{(3aS,4S,6aR)-2-[3-fluoro-4-(trifluoromethyl)benzyl]octahydrocyclopenta[c]pyrrol-4-yl}acetamide] as the compound, how does the IC50 read?
**A.** 1.35 µM

**Q.** With CC(C)C[C@H](NC(=O)NC1CCCC1)C(=O)N[C@@H]1CC[C@H]2CN(Cc3cccc(C(F)(F)F)c3)C[C@H]21 [Example 181, N^2-[(cyclopentylamino)carbonyl]-N^1-{(3aS,4R,6aR)-2-[3-(trifluoromethyl)benzyl]octahydrocyclopenta[c]pyrrol-4-yl}-L-leucinamide] as the compound, how does the IC50 read?
**A.** 0.94 µM

**Q.** CC(C)C[C@@H](C(=O)N[C@@H]1CC[C@H]2CN(Cc3ccccc3)C[C@H]21)N(C)S(C)(=O)=O [Example 168, N^1-[(3aS,4R,6aR)-2-benzyloctahydrocyclopenta[c]pyrrol-4-yl]-N^2-methyl-N^2-(methylsulfonyl)-L-leucinamide] was tested. Which IC50 did it give?
**A.** 12.9 µM

**Q.** Which IC50 does the source give for Cc1cccc(C)c1CN1C[C@H]2CC[C@H](NC(=O)C(c3ccccc3)C(C)C)[C@H]2C1 (stereo partly drawn) [Example 93, N-[(3aR,4S,6aS)-2-(2,6-dimethylbenzyl)octahydrocyclopenta[c]pyrrol-4-yl]-3-methyl-2-phenylbutanamide] here?
**A.** 3.26 µM

**Q.** CC(C)C(C(=O)N[C@H]1CC[C@@H]2CN(CCCCC(c3ccc(F)cc3)c3ccc(F)cc3)C[C@@H]21)c1ccccc1 (stereo partly drawn) [Example 119, N-{(3aR,4S,6aS)-2-[5,5-bis(4-fluorophenyl)pentyl]octahydrocyclopenta[c]pyrrol-4-yl}-3-methyl-2-phenylbutanamide] was tested. Which IC50 did it give?
**A.** 1.12 µM
